Key:
wild radish = assay: Test D preemergence; assay type: in vivo, Raphanus raphanistrum; details: Raphanus raphanistrum, pre-emergence
Method in brief: (§1)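 Seeds sown in silt loam soil got preemergence sprays; plants in peat/vermiculite potting medium were sprayed postemergence at 2–18 cm (1- to 4-leaf stage). Chemicals were formulated in a non-phytotoxic solvent mixture with surfactant. After 7 to 21 days in a controlled environment, injury was rated visually versus controls, 0 (no effect) to 100 (complete control).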

spring wheat = assay: Test D preemergence; assay type: in vivo, Triticum aestivum; details: Triticum aestivum, pre-emergence
Method in brief: as §1

winter wheat = assay: Test D preemergence; assay type: in vivo, Triticum aestivum; details: Triticum aestivum, pre-emergence
Method in brief: as §1

ragweed = assay: Test E postemergence; assay type: in vivo, Ambrosia elatior
Text: Seeds of plant species selected from corn (Zea mays), soybean (Glycine max), velvetleaf (Abutilon theophrasti), lambsquarters (Chenopodium album), wild poinsettia (Euphorbia heterophylla), palmer pigweed (Amaranthus palmeri), waterhemp (common waterhemp, Amaranthus rudis), surinam grass (Brachiaria decumbens), large (Lg) crabgrass (Digitaria sanguinalis), Brazilian crabgrass (Digitaria horizontalis), fall panicum (Panicum dichotomiflorum), giant foxtail (Setaria faberii), green foxtail (Setaria viridis), goosegrass (Eleusine indica), johnsongrass (Sorghum halepense), ragweed (common ragweed, Ambrosia elatior), barnyardgrass (Echinochloa crus-galli), sandbur (southern sandbur, Cenchrus echinatus), arrowleaf sida (Sida rhombifolia), Italian ryegrass (Lolium multiflorum), dayflower (Virginia (VA) dayflower, Commelina virginica), field bindweed (Convolvulus arvensis), morningglory (Ipomoea coccinea), nightshade (eastern black nightshade, Solanum ptycanthum), kochia (Kochia scoparia), yellow nutsedge (Cyperus esculentus), cocklebur (common cocklebur, Xanthium strumarium), smartweed (ladysthumb smartweed, and hairy beggarticks (Bidens pilosa), were planted into a silt loam soil and treated preemergence with test chemicals formulated in a non-phytotoxic solvent mixture which included a surfactant.
At the same time, plants from these crop and weed species and also horseweed (Canada horseweed, Conyza canadensis), waterhemp_RES1, (ALS & Triazine resistant common waterhemp, Amaranthus rudis), and waterhemp_RES2, (ALS & HPPD resistant common waterhemp, Amaranthus rudis) were planted in pots containing Redi-Earth® planting medium (Scotts Company, 14111 Scottslawn Road, Marysville, Ohio 43041) comprising spaghnum peat moss, vermiculite, wetting agent and starter nutrients were treated with postemergence applications of test chemicals formulated in the same manner. Plants ranged in height from 2 to 18 cm for postemergence treatments (1- to 4-leaf stage). Treated plants and controls were maintained in a greenhouse for 14 to 21 days, after which time all species were compared to controls and visually evaluated. Plant response ratings, summarized in Table E, are based on a scale of 0 to 100 where 0 is no effect and 100 is complete control. A dash (-) response means no test result.

windgrass = assay: Test D preemergence; assay type: in vivo, Apera spica-venti; details: Apera spica-venti, pre-emergence
Method in brief: as §1

Italian ryegrass = assay: Test D preemergence; assay type: in vivo, Lolium multiflorum; details: Lolium multiflorum, pre-emergence
Method in brief: as §1

oilseed rape = assay: Test D preemergence; assay type: in vivo, Brassica napus; details: Brassica napus, pre-emergence, scale 0-100, read-out: Plant response rating, Oilseed Rape
Method in brief: as §1

wild oat = assay: Test D postemergence; assay type: in vivo, Avena fatua; details: Avena fatua, post-emergence, scale 0 to 100 (0 no effect, 100 complete control), read-out: Plant response rating, Oat, Wild
Method in brief: as §1

chamomile = assay: Test D preemergence; assay type: in vivo, Matricaria inodora; details: Tripleurospermum inodorum, pre-emergence, scale 0-100, read-out: Plant response rating, Chamomile
Method in brief: as §1

wild mustard = assay: Test D postemergence; assay type: in vivo, Sinapis arvensis; details: Brassica, post-emergence, scale 0 to 100 (0 no effect, 100 complete control), read-out: Plant response rating, Mustard, Wild
Method in brief: as §1

lambsquarters = assay: Test D postemergence; assay type: in vivo, Chenopodium album; details: Chenopodium album, post-emergence, scale 0 to 100 (0 no effect, 100 complete control), read-out: Plant response rating, Lambsquarters
Method in brief: as §1

bromegrass, downy = assay: Test D postemergence; assay type: in vivo, Bromus tectorum; details: Bromus tectorum, post-emergence, Postemergence, scale 0 to 100 (0 no effect, 100 complete control), read-out: Plant response rating, Bromegrass, Downy
Method in brief: as §1

N#Cc1cccc(Oc2ncc(Cl)cn2)c1-n1cc(Br)cn1 [Compound 52, 2-(4-bromo-1H-pyrazol-1-yl)-3-[(5-chloro-2-pyrimidinyl)oxy]benzonitrile]
pest or weed control at 31 g/ha (wild radish; 31 g ai/ha, scale 0 (no effect) to 100 (complete control), read-out: Plant response rating, Radish, Wild): 30% | pest or weed control at 62 g/ha (wild radish; 62 g ai/ha, scale 0-100, read-out: Plant response rating, Radish, Wild): 80% | pest or weed control at 125 g/ha (wild radish; 125 g ai/ha, scale 0-100, read-out: Plant response rating, Radish, Wild): 95% | pest or weed control at 250 g/ha (wild radish; 250 g ai/ha, scale 0-100, read-out: Plant response rating, Radish, Wild): 100% | plant injury at 31 g/ha (spring wheat; 31 g ai/ha, scale 0 (no effect) to 100 (complete control), read-out: Plant response rating, Wheat, Spring): 0% | plant injury at 62 g/ha (spring wheat; 62 g ai/ha, scale 0-100, read-out: Plant response rating, Wheat, Spring): 0% | plant injury at 125 g/ha (spring wheat; 125 g ai/ha, scale 0-100, read-out: Plant response rating, Wheat, Spring): 0% | plant injury at 250 g/ha (spring wheat; 250 g ai/ha, scale 0-100, read-out: Plant response rating, Wheat, Spring): 30% | plant injury at 31 g/ha (winter wheat; 31 g ai/ha, scale 0 (no effect) to 100 (complete control), read-out: Plant response rating, Wheat, Winter): 0% | plant injury at 62 g/ha (winter wheat; 62 g ai/ha, scale 0-100, read-out: Plant response rating, Wheat, Winter): 0% | plant injury at 125 g/ha (winter wheat; 125 g ai/ha, scale 0-100, read-out: Plant response rating, Wheat, Winter): 25% | plant injury at 250 g/ha (winter wheat; 250 g ai/ha, scale 0-100, read-out: Plant response rating, Wheat, Winter): 35% | Plant response rating, Ragweed (ragweed; Postemergence, 31 g ai/ha, scale 0 to 100): 50 | Plant response rating, Ragweed (ragweed; Postemergence, 62 g ai/ha, scale 0 to 100): 55 | Plant response rating, Ragweed (ragweed; Postemergence, 125 g ai/ha, scale 0 to 100): 60 | Plant response rating, Ragweed (ragweed; postemergence, 16 g ai/ha, scale 0 to 100, 0 no effect, 100 complete control): 40 | pest or weed control at 31 g/ha (windgrass; 31 g ai/ha, scale 0 (no effect) to 100 (complete control), read-out: Plant response rating, Windgrass): 50% | pest or weed control at 62 g/ha (windgrass; 62 g ai/ha, scale 0-100, read-out: Plant response rating, Windgrass): 70% | pest or weed control at 125 g/ha (windgrass; 125 g ai/ha, scale 0-100, read-out: Plant response rating, Windgrass): 100% | pest or weed control at 250 g/ha (windgrass; 250 g ai/ha, scale 0-100, read-out: Plant response rating, Windgrass): 100% | pest or weed control at 31 g/ha (Italian ryegrass; 31 g ai/ha, scale 0 (no effect) to 100 (complete control), read-out: Plant response rating, Ryegrass, Italian): 0% | pest or weed control at 62 g/ha (Italian ryegrass; 62 g ai/ha, scale 0-100, read-out: Plant response rating, Ryegrass, Italian): 0% | pest or weed control at 125 g/ha (Italian ryegrass; 125 g ai/ha, scale 0-100, read-out: Plant response rating, Ryegrass, Italian): 5% | pest or weed control at 250 g/ha (Italian ryegrass; 250 g ai/ha, scale 0-100, read-out: Plant response rating, Ryegrass, Italian): 50% | plant injury at 31 g/ha (oilseed rape; 31 g ai/ha): 0% | plant injury at 62 g/ha (oilseed rape; 62 g ai/ha): 80% | plant injury at 125 g/ha (oilseed rape; 125 g ai/ha): 100% | plant injury at 250 g/ha (oilseed rape; 250 g ai/ha): 100% | pest or weed control at 31 g/ha (wild oat; 31 g ai/ha): 20% | pest or weed control at 62 g/ha (wild oat; 62 g ai/ha): 35% | pest or weed control at 125 g/ha (wild oat; 125 g ai/ha): 30% | pest or weed control at 250 g/ha (wild oat; 250 g ai/ha): 35% | pest or weed control at 31 g/ha (chamomile; 31 g ai/ha): 15% | pest or weed control at 62 g/ha (chamomile; 62 g ai/ha): 65% | pest or weed control at 125 g/ha (chamomile; 125 g ai/ha): 60% | pest or weed control at 250 g/ha (chamomile; 250 g ai/ha): 80% | pest or weed control at 31 g/ha (wild mustard; 31 g ai/ha): 70% | pest or weed control at 62 g/ha (wild mustard; 62 g ai/ha): 80% | pest or weed control at 125 g/ha (wild mustard; 125 g ai/ha): 95% | pest or weed control at 250 g/ha (wild mustard; 250 g ai/ha): 100% | pest or weed control at 31 g/ha (lambsquarters; 31 g ai/ha): 80% | pest or weed control at 62 g/ha (lambsquarters; 62 g ai/ha): 75% | pest or weed control at 125 g/ha (lambsquarters; 125 g ai/ha): 75% | pest or weed control at 250 g/ha (lambsquarters; 250 g ai/ha): 95% | pest or weed control at 31 g/ha (bromegrass, downy; 31 g ai/ha): 15% | pest or weed control at 62 g/ha (bromegrass, downy; 62 g ai/ha): 20% | pest or weed control at 125 g/ha (bromegrass, downy; 125 g ai/ha): 20% | pest or weed control at 250 g/ha (bromegrass, downy; 250 g ai/ha): 25%

Source: patent US9695155B2, “Herbicidal substituted pyrimidinyloxy benzene compounds” (E. I. DU PONT DE NEMOURS AND COMPANY, priority 2013, dated 2017)
